Measurements as given in patent US10844077B2, “Thiazolyl-containing compounds for treating proliferative diseases” (Dana-Farber Cancer Institute, Inc., priority 2014, dated 2020).
Read-outs that look alike come from different tables or passages of the source.

Key:
Type in all cases: binding
broad panel of kinases [1] = molecular target: broad panel of kinases (Homo sapiens, UniProt O00329); conditions: PIK3CD; 1 μM
broad panel of kinases [2] = molecular target: broad panel of kinases (Homo sapiens, UniProt O15197); conditions: EPHB6; 1 μM
broad panel of kinases [3] = molecular target: broad panel of kinases (Homo sapiens, UniProt O43353); conditions: RIPK2; 1 μM
broad panel of kinases [4] = molecular target: broad panel of kinases (Homo sapiens, UniProt O60674); conditions: JAK2(JH1domain-catalytic); 1 μM
broad panel of kinases [5] = molecular target: broad panel of kinases (Homo sapiens, UniProt O94806); conditions: PRKD3; 1 μM
broad panel of kinases [6] = molecular target: broad panel of kinases (Homo sapiens, UniProt P00533, DEL752-759); conditions: EGFR(S752-I759del); 1 μM
broad panel of kinases [7] = molecular target: broad panel of kinases (Homo sapiens, UniProt P07333); conditions: 1 μM
broad panel of kinases [8] = molecular target: broad panel of kinases (Homo sapiens, UniProt P27037); conditions: ACVR2A; 1 μM
broad panel of kinases [9] = molecular target: broad panel of kinases (Homo sapiens, UniProt P29322); conditions: EPHA8; 1 μM
broad panel of kinases [10] = molecular target: broad panel of kinases (Homo sapiens, UniProt P30291); conditions: WEE1; 1 μM
broad panel of kinases [11] = molecular target: broad panel of kinases (Homo sapiens, UniProt P36888); conditions: 1 μM
broad panel of kinases [12] = molecular target: broad panel of kinases (Homo sapiens, UniProt P36888, N841I); conditions: FLT3(N841I); 1 μM
broad panel of kinases [13] = molecular target: broad panel of kinases (Homo sapiens, UniProt P42679); conditions: CTK; 1 μM
broad panel of kinases [14] = molecular target: broad panel of kinases (Homo sapiens, UniProt P42681); conditions: TXK; 1 μM
broad panel of kinases [15] = molecular target: broad panel of kinases (Homo sapiens, UniProt P42685); conditions: FRK; 1 μM
broad panel of kinases [16] = molecular target: broad panel of kinases (Homo sapiens, UniProt P51813); conditions: BMX; 1 μM
broad panel of kinases [17] = molecular target: broad panel of kinases (Homo sapiens, UniProt P57058); conditions: HUNK; 1 μM
broad panel of kinases [18] = molecular target: broad panel of kinases (Homo sapiens, UniProt P78356); conditions: PIP5K2B; 1 μM
broad panel of kinases [19] = molecular target: broad panel of kinases (Homo sapiens, UniProt Q04771); conditions: ACVR1; 1 μM
broad panel of kinases [20] = molecular target: broad panel of kinases (Homo sapiens, UniProt Q07002); conditions: PCTK3; 1 μM
broad panel of kinases [21] = molecular target: broad panel of kinases (Homo sapiens, UniProt Q14004); conditions: CDC2L5; 1 μM
broad panel of kinases [22] = molecular target: broad panel of kinases (Homo sapiens, UniProt Q16288); conditions: TRKC; 1 μM
broad panel of kinases [23] = molecular target: broad panel of kinases (Homo sapiens, UniProt Q6P3R8); conditions: NEK5; 1 μM
broad panel of kinases [24] = molecular target: broad panel of kinases (Homo sapiens, UniProt Q8N4C8); conditions: MINK; 1 μM
broad panel of kinases [25] = molecular target: broad panel of kinases (Homo sapiens, UniProt Q96BR1); conditions: SGK3; 1 μM
broad panel of kinases [26] = molecular target: broad panel of kinases (Homo sapiens, UniProt Q96Q40)
broad panel of kinases [27] = molecular target: broad panel of kinases (Homo sapiens, UniProt Q9BWU1); conditions: CDK11; 1 μM
broad panel of kinases [28] = molecular target: broad panel of kinases (Homo sapiens, UniProt Q9BYP7); conditions: WNK3; 1 μM
broad panel of kinases [29] = molecular target: broad panel of kinases (Homo sapiens, UniProt Q9BZL6); conditions: PRKD2; 1 μM
broad panel of kinases [30] = molecular target: broad panel of kinases (Homo sapiens, UniProt Q9C098); conditions: DCAMKL3; 1 μM
broad panel of kinases [31] = molecular target: broad panel of kinases (Homo sapiens, UniProt Q9H2X6); conditions: HIPK2; 1 μM
broad panel of kinases [32] = molecular target: broad panel of kinases (Homo sapiens, UniProt Q9HBH9); conditions: MKNK2; 1 μM
broad panel of kinases [33] = molecular target: broad panel of kinases (Homo sapiens, UniProt Q9UEE5); conditions: DRAK1; 1 μM
broad panel of kinases [34] = molecular target: broad panel of kinases (Homo sapiens, UniProt Q9UKI8); conditions: TLK1; 1 μM
broad panel of kinases [35] = molecular target: broad panel of kinases (Homo sapiens, UniProt Q9Y2H1); conditions: NDR2; 1 μM
broad panel of kinases [36] = conditions: 1 μM

broad panel of kinases (Homo sapiens, UniProt P07333), sequence (P07333 20-972 limits assumed): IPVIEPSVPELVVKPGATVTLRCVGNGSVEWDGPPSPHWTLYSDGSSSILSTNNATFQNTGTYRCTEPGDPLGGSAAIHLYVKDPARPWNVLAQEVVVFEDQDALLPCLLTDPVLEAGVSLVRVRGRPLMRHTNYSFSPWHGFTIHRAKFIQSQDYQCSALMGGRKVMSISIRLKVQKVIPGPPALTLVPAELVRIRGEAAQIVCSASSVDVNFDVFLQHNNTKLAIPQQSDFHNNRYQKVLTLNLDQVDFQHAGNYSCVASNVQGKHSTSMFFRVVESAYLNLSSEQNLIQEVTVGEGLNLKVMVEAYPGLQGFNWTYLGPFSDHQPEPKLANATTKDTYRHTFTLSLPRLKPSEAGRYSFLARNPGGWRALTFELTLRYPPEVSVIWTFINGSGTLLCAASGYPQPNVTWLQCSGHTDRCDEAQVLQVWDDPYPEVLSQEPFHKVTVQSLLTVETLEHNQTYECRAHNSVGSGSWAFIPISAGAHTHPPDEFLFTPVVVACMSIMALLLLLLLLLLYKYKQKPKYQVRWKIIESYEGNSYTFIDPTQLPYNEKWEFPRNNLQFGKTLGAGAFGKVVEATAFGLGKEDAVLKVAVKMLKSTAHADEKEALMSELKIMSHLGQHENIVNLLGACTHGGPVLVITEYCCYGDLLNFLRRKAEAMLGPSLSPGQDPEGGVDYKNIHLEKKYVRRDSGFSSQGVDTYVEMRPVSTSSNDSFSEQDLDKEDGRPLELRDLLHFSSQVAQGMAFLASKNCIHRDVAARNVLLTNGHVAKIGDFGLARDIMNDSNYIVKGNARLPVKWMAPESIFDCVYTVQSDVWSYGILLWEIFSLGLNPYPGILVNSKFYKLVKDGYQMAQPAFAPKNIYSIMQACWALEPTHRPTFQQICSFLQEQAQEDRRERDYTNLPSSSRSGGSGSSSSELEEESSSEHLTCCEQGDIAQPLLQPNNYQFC
broad panel of kinases (Homo sapiens, UniProt P00533, DEL752-759), sequence (P00533 with tags, fused parts or gaps DEL752-759 limits assumed): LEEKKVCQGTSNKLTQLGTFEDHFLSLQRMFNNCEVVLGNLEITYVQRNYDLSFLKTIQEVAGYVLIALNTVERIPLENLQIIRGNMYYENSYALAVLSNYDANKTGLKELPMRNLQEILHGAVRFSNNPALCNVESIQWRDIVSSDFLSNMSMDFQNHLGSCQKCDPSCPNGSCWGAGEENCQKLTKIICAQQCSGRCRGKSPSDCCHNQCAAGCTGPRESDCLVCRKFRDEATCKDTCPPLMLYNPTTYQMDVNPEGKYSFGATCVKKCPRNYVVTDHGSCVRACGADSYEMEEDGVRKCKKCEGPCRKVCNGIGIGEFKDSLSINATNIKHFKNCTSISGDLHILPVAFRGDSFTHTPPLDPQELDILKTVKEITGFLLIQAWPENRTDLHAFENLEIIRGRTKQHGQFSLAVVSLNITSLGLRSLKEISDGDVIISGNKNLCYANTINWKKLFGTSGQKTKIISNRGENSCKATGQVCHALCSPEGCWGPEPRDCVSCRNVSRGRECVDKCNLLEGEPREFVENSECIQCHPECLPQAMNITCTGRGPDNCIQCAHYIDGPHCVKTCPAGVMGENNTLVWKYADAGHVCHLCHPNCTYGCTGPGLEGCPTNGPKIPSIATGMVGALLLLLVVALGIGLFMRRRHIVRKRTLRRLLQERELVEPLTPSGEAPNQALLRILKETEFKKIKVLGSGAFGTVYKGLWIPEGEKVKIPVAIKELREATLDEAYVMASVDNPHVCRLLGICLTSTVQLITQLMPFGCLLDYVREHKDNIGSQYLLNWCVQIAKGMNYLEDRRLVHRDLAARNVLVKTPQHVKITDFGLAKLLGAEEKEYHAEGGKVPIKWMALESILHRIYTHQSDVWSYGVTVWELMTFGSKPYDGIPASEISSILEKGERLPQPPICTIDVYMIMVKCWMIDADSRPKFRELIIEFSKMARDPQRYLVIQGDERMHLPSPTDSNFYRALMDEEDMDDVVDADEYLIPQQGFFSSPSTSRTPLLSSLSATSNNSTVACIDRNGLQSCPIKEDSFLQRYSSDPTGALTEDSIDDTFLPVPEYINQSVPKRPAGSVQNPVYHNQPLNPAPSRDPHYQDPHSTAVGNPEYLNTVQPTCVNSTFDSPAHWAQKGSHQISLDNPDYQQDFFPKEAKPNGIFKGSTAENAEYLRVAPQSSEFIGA
broad panel of kinases (Homo sapiens, UniProt Q16288), sequence (Q16288 32-839 limits assumed): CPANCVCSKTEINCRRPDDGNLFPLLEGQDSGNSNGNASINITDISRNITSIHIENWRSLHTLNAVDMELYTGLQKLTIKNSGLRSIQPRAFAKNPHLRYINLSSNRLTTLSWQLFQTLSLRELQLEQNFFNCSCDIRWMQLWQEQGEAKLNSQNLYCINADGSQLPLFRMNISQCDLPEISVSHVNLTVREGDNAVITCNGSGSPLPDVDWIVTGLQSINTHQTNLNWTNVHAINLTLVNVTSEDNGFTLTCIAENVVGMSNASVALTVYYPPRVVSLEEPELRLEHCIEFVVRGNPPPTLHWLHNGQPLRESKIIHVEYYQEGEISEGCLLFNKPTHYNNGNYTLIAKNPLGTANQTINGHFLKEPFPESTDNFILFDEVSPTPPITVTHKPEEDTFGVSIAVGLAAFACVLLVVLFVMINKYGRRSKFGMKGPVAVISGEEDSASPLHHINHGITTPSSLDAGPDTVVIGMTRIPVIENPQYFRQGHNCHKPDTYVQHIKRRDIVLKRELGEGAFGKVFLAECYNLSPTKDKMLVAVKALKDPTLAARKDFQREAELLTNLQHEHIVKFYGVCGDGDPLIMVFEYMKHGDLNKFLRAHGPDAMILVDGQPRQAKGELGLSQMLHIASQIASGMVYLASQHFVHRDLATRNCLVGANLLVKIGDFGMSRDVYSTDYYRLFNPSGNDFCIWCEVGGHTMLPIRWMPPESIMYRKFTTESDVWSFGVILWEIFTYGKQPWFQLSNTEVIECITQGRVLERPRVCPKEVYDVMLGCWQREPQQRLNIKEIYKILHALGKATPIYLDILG
broad panel of kinases (Homo sapiens, UniProt Q9Y2H1), sequence (Q9Y2H1 2-464 limits assumed): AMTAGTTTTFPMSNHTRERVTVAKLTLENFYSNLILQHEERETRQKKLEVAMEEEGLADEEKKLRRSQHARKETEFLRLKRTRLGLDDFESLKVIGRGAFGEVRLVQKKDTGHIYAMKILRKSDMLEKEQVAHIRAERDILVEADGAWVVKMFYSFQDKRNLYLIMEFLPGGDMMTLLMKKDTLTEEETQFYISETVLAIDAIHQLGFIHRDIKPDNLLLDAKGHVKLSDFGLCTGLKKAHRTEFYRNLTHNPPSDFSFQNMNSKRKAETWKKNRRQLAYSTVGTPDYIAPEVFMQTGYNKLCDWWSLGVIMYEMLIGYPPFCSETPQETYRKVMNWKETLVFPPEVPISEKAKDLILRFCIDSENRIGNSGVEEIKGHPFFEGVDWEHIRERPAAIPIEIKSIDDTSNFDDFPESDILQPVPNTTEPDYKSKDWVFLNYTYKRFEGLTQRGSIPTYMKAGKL
broad panel of kinases (Homo sapiens, UniProt P27037), sequence (P27037 20-513 limits assumed): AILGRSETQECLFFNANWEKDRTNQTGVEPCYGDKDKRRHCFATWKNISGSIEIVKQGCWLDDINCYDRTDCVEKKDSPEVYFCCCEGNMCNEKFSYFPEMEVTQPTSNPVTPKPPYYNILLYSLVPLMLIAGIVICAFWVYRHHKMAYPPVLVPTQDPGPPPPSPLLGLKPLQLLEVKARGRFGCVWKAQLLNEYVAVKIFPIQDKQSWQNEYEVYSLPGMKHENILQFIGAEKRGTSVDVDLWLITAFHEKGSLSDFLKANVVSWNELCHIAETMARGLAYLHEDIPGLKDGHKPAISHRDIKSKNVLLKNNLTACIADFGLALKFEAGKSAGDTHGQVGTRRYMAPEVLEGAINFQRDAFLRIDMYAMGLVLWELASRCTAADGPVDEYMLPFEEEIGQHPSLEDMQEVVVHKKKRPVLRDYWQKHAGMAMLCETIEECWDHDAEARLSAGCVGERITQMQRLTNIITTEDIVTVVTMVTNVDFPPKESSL
broad panel of kinases (Homo sapiens, UniProt O15197), sequence (O15197 32-1021 limits assumed): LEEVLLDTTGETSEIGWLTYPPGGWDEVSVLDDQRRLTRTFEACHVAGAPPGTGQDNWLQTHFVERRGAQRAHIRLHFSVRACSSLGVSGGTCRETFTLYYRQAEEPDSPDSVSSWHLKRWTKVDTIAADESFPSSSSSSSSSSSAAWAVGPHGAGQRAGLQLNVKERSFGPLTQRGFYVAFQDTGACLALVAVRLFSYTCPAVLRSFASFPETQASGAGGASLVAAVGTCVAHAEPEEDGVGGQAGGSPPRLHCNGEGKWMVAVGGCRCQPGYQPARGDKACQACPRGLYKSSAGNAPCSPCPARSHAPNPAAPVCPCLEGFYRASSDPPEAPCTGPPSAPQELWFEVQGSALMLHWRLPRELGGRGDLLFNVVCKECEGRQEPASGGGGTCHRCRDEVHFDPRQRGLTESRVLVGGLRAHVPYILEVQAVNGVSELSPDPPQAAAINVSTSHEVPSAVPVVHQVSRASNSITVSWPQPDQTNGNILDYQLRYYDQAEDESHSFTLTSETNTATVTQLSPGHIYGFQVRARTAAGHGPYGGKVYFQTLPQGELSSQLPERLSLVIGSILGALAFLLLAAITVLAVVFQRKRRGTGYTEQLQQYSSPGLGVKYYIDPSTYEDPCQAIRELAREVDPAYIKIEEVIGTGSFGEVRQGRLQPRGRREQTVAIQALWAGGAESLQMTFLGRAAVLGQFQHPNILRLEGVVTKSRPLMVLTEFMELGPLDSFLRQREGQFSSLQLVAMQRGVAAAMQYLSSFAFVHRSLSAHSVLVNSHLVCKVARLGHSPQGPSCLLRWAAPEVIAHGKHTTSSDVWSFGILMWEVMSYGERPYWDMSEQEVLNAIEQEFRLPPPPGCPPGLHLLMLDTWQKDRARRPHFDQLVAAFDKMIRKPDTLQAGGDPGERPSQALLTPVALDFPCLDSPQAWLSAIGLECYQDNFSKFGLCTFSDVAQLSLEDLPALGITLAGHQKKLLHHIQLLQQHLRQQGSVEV

C=CC(=O)N1CC[C@H](Nc2nc(CN3CCOCC3)cc(Nc3ncc(C(=O)Nc4c(C)cccc4C)s3)n2)C1 [Example I-2]
percent of control binding remaining (lower = stronger binding) (broad panel of kinases [1]): 79%
percent of control binding remaining (lower = stronger binding) (broad panel of kinases [2]): 7.7%
percent of control binding remaining (lower = stronger binding) (broad panel of kinases [3]): 14%
percent of control binding remaining (lower = stronger binding) (broad panel of kinases [4]): 65%
percent of control binding remaining (lower = stronger binding) (broad panel of kinases [5]): 81%
percent of control binding remaining (lower = stronger binding) (broad panel of kinases [6]): 17%
percent of control binding remaining (lower = stronger binding) (broad panel of kinases [7]; CSF1R-autoinhibited): 1.4%
percent of control binding remaining (lower = stronger binding) (broad panel of kinases [7]; CSF1R): 2.6%
percent of control binding remaining (lower = stronger binding) (broad panel of kinases [8]): 76%
percent of control binding remaining (lower = stronger binding) (broad panel of kinases [9]): 0.75%
percent of control binding remaining (lower = stronger binding) (broad panel of kinases [10]): 93%
percent of control binding remaining (lower = stronger binding) (broad panel of kinases [11]; FLT3-autoinhibited): 100%
percent of control binding remaining (lower = stronger binding) (broad panel of kinases [11]; FLT3): 100%
percent of control binding remaining (lower = stronger binding) (broad panel of kinases [12]): 100%
percent of control binding remaining (lower = stronger binding) (broad panel of kinases [13]): 67%
percent of control binding remaining (lower = stronger binding) (broad panel of kinases [14]): 0.6%
percent of control binding remaining (lower = stronger binding) (broad panel of kinases [15]): 0.1%
percent of control binding remaining (lower = stronger binding) (broad panel of kinases [16]): 3.6%
percent of control binding remaining (lower = stronger binding) (broad panel of kinases [17]): 100%
percent of control binding remaining (lower = stronger binding) (broad panel of kinases [18]): 98%
percent of control binding remaining (lower = stronger binding) (broad panel of kinases [19]): 74%
percent of control binding remaining (lower = stronger binding) (broad panel of kinases [20]): 99%
percent of control binding remaining (lower = stronger binding) (broad panel of kinases [21]): 100%
percent of control binding remaining (lower = stronger binding) (broad panel of kinases [22]): 99%
percent of control binding remaining (lower = stronger binding) (broad panel of kinases [23]): 96%
percent of control binding remaining (lower = stronger binding) (broad panel of kinases [24]): 71%
percent of control binding remaining (lower = stronger binding) (broad panel of kinases [25]): 100%
% change compared to control (broad panel of kinases [26]): 100%
percent of control binding remaining (lower = stronger binding) (broad panel of kinases [27]): 98%
percent of control binding remaining (lower = stronger binding) (broad panel of kinases [28]): 100%
percent of control binding remaining (lower = stronger binding) (broad panel of kinases [29]): 100%
percent of control binding remaining (lower = stronger binding) (broad panel of kinases [30]): 97%
percent of control binding remaining (lower = stronger binding) (broad panel of kinases [31]): 97%
percent of control binding remaining (lower = stronger binding) (broad panel of kinases [32]): 100%
percent of control binding remaining (lower = stronger binding) (broad panel of kinases [33]): 100%
percent of control binding remaining (lower = stronger binding) (broad panel of kinases [34]): 100%
percent of control binding remaining (lower = stronger binding) (broad panel of kinases [35]): 96%
percent of control binding remaining (lower = stronger binding) (broad panel of kinases [36]; EGFR(L747-E749del, A750P)): 2.2%
percent of control binding remaining (lower = stronger binding) (broad panel of kinases [36]; EGFR(L747-S752del, P753S)): 3.6%
percent of control binding remaining (lower = stronger binding) (broad panel of kinases [36]; EGFR(L747-T751del, Sins)): 2%
percent of control binding remaining (lower = stronger binding) (broad panel of kinases [36]; FLT3(ITD)): 92%

C=CC(=O)N1CC[C@H](Nc2nccc(Nc3ncc(C(=O)Nc4c(C)cccc4C)s3)n2)C1 [Example I-3]
percent of control binding remaining (lower = stronger binding) (broad panel of kinases [1]): 85%
percent of control binding remaining (lower = stronger binding) (broad panel of kinases [2]): 4.6%
percent of control binding remaining (lower = stronger binding) (broad panel of kinases [3]): 31%
percent of control binding remaining (lower = stronger binding) (broad panel of kinases [4]): 82%
percent of control binding remaining (lower = stronger binding) (broad panel of kinases [5]): 81%
percent of control binding remaining (lower = stronger binding) (broad panel of kinases [6]): 4.6%
percent of control binding remaining (lower = stronger binding) (broad panel of kinases [7]; CSF1R-autoinhibited): 3.2%
percent of control binding remaining (lower = stronger binding) (broad panel of kinases [7]; CSF1R): 3.3%
percent of control binding remaining (lower = stronger binding) (broad panel of kinases [8]): 82%
percent of control binding remaining (lower = stronger binding) (broad panel of kinases [9]): 0.45%
percent of control binding remaining (lower = stronger binding) (broad panel of kinases [10]): 100%
percent of control binding remaining (lower = stronger binding) (broad panel of kinases [11]; FLT3-autoinhibited): 100%
percent of control binding remaining (lower = stronger binding) (broad panel of kinases [11]; FLT3): 84%
percent of control binding remaining (lower = stronger binding) (broad panel of kinases [12]): 100%
percent of control binding remaining (lower = stronger binding) (broad panel of kinases [13]): 81%
percent of control binding remaining (lower = stronger binding) (broad panel of kinases [14]): 0.7%
percent of control binding remaining (lower = stronger binding) (broad panel of kinases [15]): 0.1%
percent of control binding remaining (lower = stronger binding) (broad panel of kinases [16]): 4.9%
percent of control binding remaining (lower = stronger binding) (broad panel of kinases [17]): 83%
percent of control binding remaining (lower = stronger binding) (broad panel of kinases [18]): 100%
percent of control binding remaining (lower = stronger binding) (broad panel of kinases [19]): 100%
percent of control binding remaining (lower = stronger binding) (broad panel of kinases [20]): 92%
percent of control binding remaining (lower = stronger binding) (broad panel of kinases [21]): 100%
percent of control binding remaining (lower = stronger binding) (broad panel of kinases [22]): 96%
percent of control binding remaining (lower = stronger binding) (broad panel of kinases [23]): 87%
percent of control binding remaining (lower = stronger binding) (broad panel of kinases [24]): 66%
percent of control binding remaining (lower = stronger binding) (broad panel of kinases [25]): 100%
% change compared to control (broad panel of kinases [26]): 95%
percent of control binding remaining (lower = stronger binding) (broad panel of kinases [27]): 83%
percent of control binding remaining (lower = stronger binding) (broad panel of kinases [28]): 100%
percent of control binding remaining (lower = stronger binding) (broad panel of kinases [29]): 100%
percent of control binding remaining (lower = stronger binding) (broad panel of kinases [30]): 92%
percent of control binding remaining (lower = stronger binding) (broad panel of kinases [31]): 100%
percent of control binding remaining (lower = stronger binding) (broad panel of kinases [32]): 98%
percent of control binding remaining (lower = stronger binding) (broad panel of kinases [33]): 100%
percent of control binding remaining (lower = stronger binding) (broad panel of kinases [34]): 100%
percent of control binding remaining (lower = stronger binding) (broad panel of kinases [35]): 58%
percent of control binding remaining (lower = stronger binding) (broad panel of kinases [36]; EGFR(L747-E749del, A750P)): 1.4%
percent of control binding remaining (lower = stronger binding) (broad panel of kinases [36]; EGFR(L747-S752del, P753S)): 3.6%
percent of control binding remaining (lower = stronger binding) (broad panel of kinases [36]; EGFR(L747-T751del, Sins)): 4.2%
percent of control binding remaining (lower = stronger binding) (broad panel of kinases [36]; FLT3(ITD)): 98%
